Assay results reported in ChEMBL document CHEMBL4507267 (2021).

Key:
[1] = molecular target: AP2-associated protein kinase 1 (Homo sapiens) (UniProt Q2M2I8); settings: Compound concentration 1000.0 nM
[2] = molecular target: RAC-gamma serine/threonine-protein kinase (Homo sapiens) (UniProt Q9Y243); settings: Compound concentration 1000.0 nM
[3] = molecular target: 5'-AMP-activated protein kinase catalytic subunit alpha-2 (Homo sapiens) (UniProt P54646); settings: Compound concentration 1000.0 nM
[4] = molecular target: Serine/threonine-protein kinase B-raf (Homo sapiens) (UniProt P15056); settings: Compound concentration 1000.0 nM
[5] = molecular target: Calcium/calmodulin-dependent protein kinase type 1 (Homo sapiens) (UniProt Q14012); settings: Compound concentration 1000.0 nM
[6] = molecular target: Cyclin-dependent kinase 11B (Homo sapiens) (UniProt P21127); settings: Compound concentration 1000.0 nM
[7] = molecular target: Dual specificity protein kinase CLK3 (Homo sapiens) (UniProt P49761); settings: Compound concentration 1000.0 nM
[8] = molecular target: Tyrosine-protein kinase CSK (Homo sapiens) (UniProt P41240); settings: Compound concentration 1000.0 nM
[9] = molecular target: Casein kinase II subunit alpha' (Homo sapiens) (UniProt P19784); settings: Compound concentration 1000.0 nM
[10] = molecular target: Dual specificity tyrosine-phosphorylation-regulated kinase 2 (Homo sapiens) (UniProt Q92630); settings: Compound concentration 1000.0 nM
[11] = tested on: Epidermal growth factor receptor (Homo sapiens), P00533 [UNDEFINED MUTATION]; settings: Compound concentration 1000.0 nM
[12] = molecular target: Ephrin type-B receptor 1 (Homo sapiens) (UniProt P54762); settings: Compound concentration 1000.0 nM
[13] = molecular target: Focal adhesion kinase 1 (Homo sapiens) (UniProt Q05397); settings: Compound concentration 1000.0 nM
[14] = molecular target: Interleukin-1 receptor-associated kinase 1 (Homo sapiens) (UniProt P51617); settings: Compound concentration 1000.0 nM
[15] = molecular target: Tyrosine-protein kinase ITK/TSK (Homo sapiens) (UniProt Q08881); settings: Compound concentration 1000.0 nM
[16] = tested on: Mast/stem cell growth factor receptor Kit (Homo sapiens), P10721 [V559D]; settings: Compound concentration 1000.0 nM
[17] = molecular target: Mitogen-activated protein kinase kinase kinase 1 (Homo sapiens) (UniProt Q13233); settings: Compound concentration 1000.0 nM
[18] = molecular target: Serine/threonine-protein kinase MARK2 (Homo sapiens) (UniProt Q7KZI7); settings: Compound concentration 1000.0 nM
[19] = molecular target: Microtubule-associated serine/threonine-protein kinase 1 (Homo sapiens) (UniProt Q9Y2H9); settings: Compound concentration 1000.0 nM
[20] = molecular target: Dual specificity mitogen-activated protein kinase kinase 5 (Homo sapiens) (UniProt Q13163); settings: Compound concentration 1000.0 nM
[21] = molecular target: Serine/threonine-protein kinase mTOR (Homo sapiens) (UniProt P42345); settings: Compound concentration 1000.0 nM
[22] = molecular target: Serine/threonine-protein kinase Nek1 (Homo sapiens) (UniProt Q96PY6); settings: Compound concentration 1000.0 nM
[23] = molecular target: Serine/threonine-protein kinase PAK 2 (Homo sapiens) (UniProt Q13177); settings: Compound concentration 1000.0 nM
[24] = molecular target: Serine/threonine-protein kinase PAK 3 (Homo sapiens) (UniProt O75914); settings: Compound concentration 1000.0 nM
[25] = molecular target: Phosphatidylinositol 4-phosphate 3-kinase C2 domain-containing subunit beta (Homo sapiens) (UniProt O00750); settings: Compound concentration 1000.0 nM
[26] = molecular target: Phosphatidylinositol 4-kinase beta (Homo sapiens) (UniProt Q9UBF8); settings: Compound concentration 1000.0 nM
[27] = molecular target: Serine/threonine-protein kinase D3 (Homo sapiens) (UniProt O94806); settings: Compound concentration 1000.0 nM
[28] = molecular target: cGMP-dependent protein kinase 1 (Homo sapiens) (UniProt Q13976); settings: Compound concentration 1000.0 nM
[29] = molecular target: Interferon-induced, double-stranded RNA-activated protein kinase (Homo sapiens) (UniProt P19525); settings: Compound concentration 1000.0 nM
[30] = molecular target: Rho-associated protein kinase 2 (Homo sapiens) (UniProt O75116); settings: Compound concentration 1000.0 nM
[31] = molecular target: Ribosomal protein S6 kinase alpha-4 (Homo sapiens) (UniProt O75676); settings: Compound concentration 1000.0 nM
[32] = molecular target: Ribosomal protein S6 kinase alpha-1 (Homo sapiens) (UniProt Q15418); settings: Compound concentration 1000.0 nM
[33] = molecular target: Ribosomal protein S6 kinase alpha-2 (Homo sapiens) (UniProt Q15349); settings: Compound concentration 1000.0 nM
[34] = molecular target: Proto-oncogene tyrosine-protein kinase Src (Homo sapiens) (UniProt P12931); settings: Compound concentration 1000.0 nM
[35] = molecular target: STE20/SPS1-related proline-alanine-rich protein kinase (Homo sapiens) (UniProt Q9UEW8); settings: Compound concentration 1000.0 nM
[36] = molecular target: Tyrosine-protein kinase SYK (Homo sapiens) (UniProt P43405); settings: Compound concentration 1000.0 nM
[37] = molecular target: Serine/threonine-protein kinase TAO2 (Homo sapiens) (UniProt Q9UL54); settings: Compound concentration 1000.0 nM
[38] = molecular target: TRAF2 and NCK-interacting protein kinase (Homo sapiens) (UniProt Q9UKE5); settings: Compound concentration 1000.0 nM
[39] = molecular target: Transient receptor potential cation channel subfamily M member 6 (Homo sapiens) (UniProt Q9BX84); settings: Compound concentration 1000.0 nM
[40] = molecular target: Serine/threonine-protein kinase ULK3 (Homo sapiens) (UniProt Q6PHR2); settings: Compound concentration 1000.0 nM
[41] = molecular target: Serine/threonine-protein kinase WNK1 (Homo sapiens) (UniProt Q9H4A3); settings: Compound concentration 1000.0 nM
[42] = molecular target: Serine/threonine-protein kinase 25 (Homo sapiens) (UniProt O00506); settings: Compound concentration 1000.0 nM
[43] = molecular target: Beta-1 adrenergic receptor (Homo sapiens) (UniProt P08588); settings: Compound concentration 10.0 uM
[44] = molecular target: Muscarinic acetylcholine receptor M3 (Homo sapiens) (UniProt P20309); settings: Compound concentration 10.0 uM

Transient receptor potential cation channel subfamily M member 6 (Homo sapiens), sequence (Q9BX84 whole entry): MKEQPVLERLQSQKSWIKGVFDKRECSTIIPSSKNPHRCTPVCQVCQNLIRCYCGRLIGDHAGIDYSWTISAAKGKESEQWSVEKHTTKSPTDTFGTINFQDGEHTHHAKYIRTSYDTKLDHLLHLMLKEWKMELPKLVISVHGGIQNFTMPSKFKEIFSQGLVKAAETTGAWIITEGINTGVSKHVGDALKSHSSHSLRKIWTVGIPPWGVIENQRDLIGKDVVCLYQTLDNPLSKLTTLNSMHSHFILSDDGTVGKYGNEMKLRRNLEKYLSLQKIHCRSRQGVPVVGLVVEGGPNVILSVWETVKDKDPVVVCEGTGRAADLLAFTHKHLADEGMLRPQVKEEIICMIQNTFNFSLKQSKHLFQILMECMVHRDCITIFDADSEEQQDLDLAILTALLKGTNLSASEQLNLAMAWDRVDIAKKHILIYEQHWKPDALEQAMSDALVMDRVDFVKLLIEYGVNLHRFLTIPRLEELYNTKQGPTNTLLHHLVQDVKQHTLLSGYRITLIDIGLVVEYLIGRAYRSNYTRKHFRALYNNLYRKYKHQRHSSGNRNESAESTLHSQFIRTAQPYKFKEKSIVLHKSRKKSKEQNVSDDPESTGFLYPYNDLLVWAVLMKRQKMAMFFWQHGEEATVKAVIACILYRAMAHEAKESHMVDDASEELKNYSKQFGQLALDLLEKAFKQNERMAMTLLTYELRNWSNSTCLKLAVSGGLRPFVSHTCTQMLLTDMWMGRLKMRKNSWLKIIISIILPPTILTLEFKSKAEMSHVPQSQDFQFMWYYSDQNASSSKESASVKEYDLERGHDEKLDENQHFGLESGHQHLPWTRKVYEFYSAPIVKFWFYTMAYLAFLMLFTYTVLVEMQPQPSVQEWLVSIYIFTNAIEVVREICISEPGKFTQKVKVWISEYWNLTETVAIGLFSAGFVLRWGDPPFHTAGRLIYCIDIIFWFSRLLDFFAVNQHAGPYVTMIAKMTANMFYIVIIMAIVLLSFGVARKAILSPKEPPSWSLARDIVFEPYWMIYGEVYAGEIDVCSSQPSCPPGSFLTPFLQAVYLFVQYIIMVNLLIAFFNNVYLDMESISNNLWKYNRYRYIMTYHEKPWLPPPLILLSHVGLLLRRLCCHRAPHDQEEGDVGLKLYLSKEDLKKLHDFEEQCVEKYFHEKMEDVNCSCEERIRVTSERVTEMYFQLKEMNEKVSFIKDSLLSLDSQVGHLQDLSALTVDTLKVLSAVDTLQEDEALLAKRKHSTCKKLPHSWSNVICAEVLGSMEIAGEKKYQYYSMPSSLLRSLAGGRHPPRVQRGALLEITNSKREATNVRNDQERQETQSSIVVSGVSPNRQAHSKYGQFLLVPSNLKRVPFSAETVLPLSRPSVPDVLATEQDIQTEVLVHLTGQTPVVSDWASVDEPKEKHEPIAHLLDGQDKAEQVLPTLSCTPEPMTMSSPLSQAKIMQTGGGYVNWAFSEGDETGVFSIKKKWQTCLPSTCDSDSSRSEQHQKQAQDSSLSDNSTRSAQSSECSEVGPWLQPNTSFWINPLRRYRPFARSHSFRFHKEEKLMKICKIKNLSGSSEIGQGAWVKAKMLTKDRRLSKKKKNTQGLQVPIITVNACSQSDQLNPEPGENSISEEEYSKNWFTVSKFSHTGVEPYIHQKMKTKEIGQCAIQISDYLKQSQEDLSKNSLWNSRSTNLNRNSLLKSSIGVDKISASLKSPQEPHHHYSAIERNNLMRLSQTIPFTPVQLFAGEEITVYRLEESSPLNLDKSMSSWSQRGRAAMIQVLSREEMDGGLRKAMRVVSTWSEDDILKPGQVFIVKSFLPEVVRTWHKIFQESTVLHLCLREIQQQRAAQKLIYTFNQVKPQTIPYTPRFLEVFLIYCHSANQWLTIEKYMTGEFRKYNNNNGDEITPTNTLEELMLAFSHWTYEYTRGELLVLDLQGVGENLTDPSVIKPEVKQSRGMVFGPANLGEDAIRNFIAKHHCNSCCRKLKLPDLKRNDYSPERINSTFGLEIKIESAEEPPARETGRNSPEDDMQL
Serine/threonine-protein kinase ULK3 (Homo sapiens), sequence (Q6PHR2 whole entry): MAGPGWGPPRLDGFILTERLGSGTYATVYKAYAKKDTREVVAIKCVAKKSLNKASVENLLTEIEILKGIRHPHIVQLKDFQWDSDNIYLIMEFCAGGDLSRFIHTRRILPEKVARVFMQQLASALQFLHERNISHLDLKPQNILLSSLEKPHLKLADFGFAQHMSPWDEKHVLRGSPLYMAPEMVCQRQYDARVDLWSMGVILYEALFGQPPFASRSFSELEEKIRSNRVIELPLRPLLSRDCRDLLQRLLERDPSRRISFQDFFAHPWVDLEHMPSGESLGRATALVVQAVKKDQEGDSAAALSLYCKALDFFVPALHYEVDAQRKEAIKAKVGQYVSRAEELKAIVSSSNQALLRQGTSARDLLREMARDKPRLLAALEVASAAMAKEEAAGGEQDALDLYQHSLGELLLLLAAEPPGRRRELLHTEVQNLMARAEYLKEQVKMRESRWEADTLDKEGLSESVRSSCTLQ
Mast/stem cell growth factor receptor Kit (Homo sapiens), P10721 [V559D], sequence (P10721 whole entry V559D): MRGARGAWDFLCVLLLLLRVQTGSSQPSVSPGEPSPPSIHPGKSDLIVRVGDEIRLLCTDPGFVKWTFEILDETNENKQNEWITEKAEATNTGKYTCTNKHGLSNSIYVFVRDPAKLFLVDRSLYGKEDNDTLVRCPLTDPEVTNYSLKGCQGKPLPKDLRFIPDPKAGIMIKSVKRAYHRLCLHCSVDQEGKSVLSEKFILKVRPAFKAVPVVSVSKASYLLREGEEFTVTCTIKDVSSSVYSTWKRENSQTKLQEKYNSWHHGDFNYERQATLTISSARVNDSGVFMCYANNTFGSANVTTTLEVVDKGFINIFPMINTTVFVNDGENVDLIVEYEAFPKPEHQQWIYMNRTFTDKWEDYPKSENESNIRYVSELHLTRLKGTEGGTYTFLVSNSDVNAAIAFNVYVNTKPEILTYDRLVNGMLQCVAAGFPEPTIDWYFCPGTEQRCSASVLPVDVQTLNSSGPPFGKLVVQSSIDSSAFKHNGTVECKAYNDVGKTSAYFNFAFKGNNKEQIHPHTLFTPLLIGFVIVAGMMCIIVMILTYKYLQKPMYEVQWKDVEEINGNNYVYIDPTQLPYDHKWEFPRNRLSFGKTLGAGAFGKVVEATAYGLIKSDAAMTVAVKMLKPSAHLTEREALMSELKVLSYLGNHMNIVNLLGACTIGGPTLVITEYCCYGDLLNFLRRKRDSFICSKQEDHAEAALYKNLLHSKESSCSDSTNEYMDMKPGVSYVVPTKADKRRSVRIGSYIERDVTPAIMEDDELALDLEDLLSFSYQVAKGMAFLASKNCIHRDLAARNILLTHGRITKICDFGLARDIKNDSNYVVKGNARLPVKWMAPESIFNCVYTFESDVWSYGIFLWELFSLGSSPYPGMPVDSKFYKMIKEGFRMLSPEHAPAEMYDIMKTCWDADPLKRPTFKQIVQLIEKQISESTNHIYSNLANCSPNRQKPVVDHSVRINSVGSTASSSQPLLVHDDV
Ribosomal protein S6 kinase alpha-4 (Homo sapiens), sequence (O75676 whole entry, looked up): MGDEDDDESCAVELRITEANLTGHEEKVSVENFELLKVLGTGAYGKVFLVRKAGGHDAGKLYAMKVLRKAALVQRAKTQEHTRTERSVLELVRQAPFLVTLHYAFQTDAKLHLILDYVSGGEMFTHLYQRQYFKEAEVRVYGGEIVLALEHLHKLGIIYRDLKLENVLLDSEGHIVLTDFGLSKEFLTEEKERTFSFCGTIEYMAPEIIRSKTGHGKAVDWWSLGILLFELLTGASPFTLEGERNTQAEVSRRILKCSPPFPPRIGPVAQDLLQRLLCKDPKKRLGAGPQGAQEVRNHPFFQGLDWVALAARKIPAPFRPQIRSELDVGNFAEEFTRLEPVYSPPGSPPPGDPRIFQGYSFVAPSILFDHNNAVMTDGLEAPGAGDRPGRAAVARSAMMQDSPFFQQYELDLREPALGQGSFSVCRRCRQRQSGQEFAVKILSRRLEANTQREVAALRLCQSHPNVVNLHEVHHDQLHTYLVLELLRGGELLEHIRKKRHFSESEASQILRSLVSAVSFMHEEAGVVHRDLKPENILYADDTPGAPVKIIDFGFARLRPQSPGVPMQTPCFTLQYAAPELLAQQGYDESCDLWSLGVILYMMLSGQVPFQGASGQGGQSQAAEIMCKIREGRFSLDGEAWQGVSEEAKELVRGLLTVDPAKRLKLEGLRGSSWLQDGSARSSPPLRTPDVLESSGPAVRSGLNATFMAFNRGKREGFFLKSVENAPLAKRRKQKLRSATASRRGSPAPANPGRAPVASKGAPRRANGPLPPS
Dual specificity tyrosine-phosphorylation-regulated kinase 2 (Homo sapiens), sequence (Q92630 whole entry): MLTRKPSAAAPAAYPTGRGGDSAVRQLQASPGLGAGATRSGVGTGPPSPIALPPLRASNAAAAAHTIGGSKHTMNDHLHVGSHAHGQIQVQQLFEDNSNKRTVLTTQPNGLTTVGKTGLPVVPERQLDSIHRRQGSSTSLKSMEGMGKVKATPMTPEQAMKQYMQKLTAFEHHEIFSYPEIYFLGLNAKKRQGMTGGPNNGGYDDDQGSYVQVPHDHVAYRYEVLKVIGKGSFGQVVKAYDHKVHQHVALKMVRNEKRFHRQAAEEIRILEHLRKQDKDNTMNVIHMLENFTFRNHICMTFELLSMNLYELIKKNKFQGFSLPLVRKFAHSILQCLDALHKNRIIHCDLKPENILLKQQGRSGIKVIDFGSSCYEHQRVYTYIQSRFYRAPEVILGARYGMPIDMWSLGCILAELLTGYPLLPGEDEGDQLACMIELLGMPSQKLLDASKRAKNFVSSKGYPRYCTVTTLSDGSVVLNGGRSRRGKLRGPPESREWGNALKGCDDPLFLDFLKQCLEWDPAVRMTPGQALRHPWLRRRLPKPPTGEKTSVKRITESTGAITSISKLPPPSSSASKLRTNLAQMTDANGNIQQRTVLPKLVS

Cc1c(NC(=O)c2cc(C(N)=O)nc3cc(F)ccc23)c(C(F)(F)F)nn1Cc1ccc(C(C)(C)C)cc1 [BAY-588]
inactive: residual activity [1] 83% | residual activity [2] 100% | residual activity [3] 100% | residual activity [4] 81% | residual activity [5] 82% | residual activity [6] 100% | residual activity [7] 100% | residual activity [8] 94% | residual activity [9] 100% | residual activity [10] 88% | residual activity [11] 100% | residual activity [12] 86% | residual activity [13] 100% | residual activity [14] 100% | residual activity [15] 95% | residual activity [16] 95% | residual activity [17] 100% | residual activity [18] 100% | residual activity [19] 100% | residual activity [20] 78% | residual activity [21] 86% | residual activity [22] 97% | residual activity [23] 85% | residual activity [24] 100% | residual activity [25] 86% | residual activity [26] 72% | residual activity [27] 100% | residual activity [28] 99% | residual activity [29] 100% | residual activity [30] 100% | residual activity [31] 100% | residual activity [32] 100% | residual activity [33] 100% | residual activity [34] 100% | residual activity [35] 100% | residual activity [36] 90% | residual activity [37] 100% | residual activity [38] 98% | residual activity [39] 100% | residual activity [40] 97% | residual activity [41] 100% | residual activity [42] 100% | inhibition [43] 21.2% | inhibition [44] 1.86%

Cc1c(NC(=O)c2cc(C(N)=O)nc3cc(F)ccc23)c(C(F)(F)F)nn1Cc1ccc(C#N)cc1 [BAY-876]
inactive: residual activity [1] 79% | residual activity [2] 81% | residual activity [3] 100% | residual activity [4] 91% | residual activity [5] 100% | residual activity [6] 94% | residual activity [7] 100% | residual activity [8] 100% | residual activity [9] 100% | residual activity [10] 88% | residual activity [11] 91% | residual activity [12] 66% | residual activity [13] 96% | residual activity [14] 70% | residual activity [15] 78% | residual activity [16] 100% | residual activity [17] 65% | residual activity [18] 97% | residual activity [19] 77% | residual activity [20] 88% | residual activity [21] 93% | residual activity [22] 95% | residual activity [23] 88% | residual activity [24] 76% | residual activity [25] 81% | residual activity [26] 77% | residual activity [27] 74% | residual activity [28] 100% | residual activity [29] 100% | residual activity [30] 99% | residual activity [31] 85% | residual activity [32] 100% | residual activity [33] 85% | residual activity [34] 81% | residual activity [35] 94% | residual activity [36] 95% | residual activity [37] 85% | residual activity [38] 92% | residual activity [39] 87% | residual activity [40] 74% | residual activity [41] 80% | residual activity [42] 100% | inhibition [43] 28.5% | inhibition [44] -6.5%
